From PMC10094418, “Butein Inhibits Cell Growth by Blocking the IL-6/IL-6Rα Interaction in Human Ovarian Cancer and by Regulation of the IL-6/STAT3/FoxO3a Pathway” (International Journal of Molecular Sciences, 2023)

Experiments:
[1] = tested on: A2780 cells; test: Matrigel invasion assay, A2780; assay type: cell-based, human; conditions: 48 h
Procedure: Matrigel invasion assays were performed using a BioCoat Matrigel Invasion Chamber (BD Bioscience, Bedford, MA, USA). A2780 and SKOV3 cells (50,000 cells) were placed inside the chamber in serum-free medium containing 500 μL of drugs, and 700 μL of medium containing serum were placed outside the chamber. After incubation for 48 h, the infiltrating cells were stained using the Differential Quick Stain Kit (Cat.no. 26096-50, Electron Microscopy Sciences, Hatfield, PA, USA). Cells were imaged with a Slide Scanner (Aperio CS2, Leica Microsystems, Wetzlar, Germany) and the number of invading cells was quantified using Image J.

[2] = tested on: SKOV3 cells; test: Cell viability by MTT assay, SKOV3; assay type: cell-based; conditions: Homo sapiens, SK-OV-3, 48 h
Procedure: A2780 and SKOV3 cell lines were purchased from the European Collection of Cell Cultures (ECACC, London, UK) and Korean Cell Line Bank (KCLB, Seoul, Republic of Korea) respectively. Each cell line was seeded in a 96-well plate at an appropriate cell number (3000 cells/100 μL in each well). After 24 h, butein was added to the plates at each of the following concentrations, 0, 3.125, 6.25, 12.5, 25, and 50 μM, in triplicate in the presence of serum medium. After 48 h, 100 μL of […] (Sigma-Aldrich, St. Louis, MO, USA) solubilizing solution was added to each well and incubated for 4 h. The solution was then aspirated, and 100 μL of DMSO was added for cell lysis. The spectrophotometric absorbance was measured at 540 nm. Half of the maximum inhibitory concentration (IC50) was determined using GraphPad Prism software (version 7.0).

IC50 [2]: 175 ± 61.9 µM
SMILES: O=C(/C=C/c1ccc(O)c(O)c1)c1ccc(O)cc1O [butein]
Cell infiltration (invasion), A2780 [1]: similarly affected
